Patent US7528113B2, “Method and composition for the treatment of adenoviral ocular infections” (priority 1999, dated 2009)
Where two headings read alike, the source gives them in different places.

Columns and labels:
[1] = test system: Ad37 binding to Chang C conjunctival cells; assay: microbe, parasite or virus in culture; type: cell-based, adenovirus; details: for Interference with the binding of Ad37 to sialic acid expressing cells: 160 mmol concentrations
Excerpt: (§1) Interference of the binding of adenovirus subtype 37 (Ad37) with the first step cellular receptor was studied using dextran sulphate and glycosaminoglycans, such as heparin and heparan sulphates. […] It was thus confirmed that the cellular receptor for Ad37 is (2-3) linked sialic acid.
The effect of glycoproteins to inhibit Ad37 binding to Chang C conjunctival cells was investigated using the following glycoproteins: fetuin, mucin, orosomucoid and glycophorin A. The results are presented in table 2.
The inventors confirmed the inventive concept by determining the inhibition achieved with different carbohydrates, using adenovirus type 37 and Chang C conjunctival cells.
All data are visualised as the dose required for 50% inhibition of adenovirus binding and the maximum inhibition of adenovirus binding.

Ad37 virus = assay: Binding of 125I-labeled Ad37 to glycosphingolipids; parameters: species or system adenovirus; details: preliminary results, thin layer chromatography, FIG. 3
adenoviral adhesion = assay: Inhibition of adenoviral adhesion by multivalent ligands; type: cell-based, adenovirus; details: multivalent ligand
Excerpt: Monovalent analogues of the sialic acid receptor will have to cover most of the twelve fibres at each of the twelve comers of the virus particle to enable efficient blocking of the binding of the virus particle to the host cell receptors. Divalent or multivalent analogues will, by interacting with a few fibres, enable aggregation of numerous virus particles into a lattice. This will hamper or inhibit virus infection with a higher efficiency, i.e. more inhibition per μmole of ligand.

[2] = test system: adenovirus subtype 37 (Ad37); assay: Interference of the binding of Ad37 with the first step cellular receptor; type: cell-based
Excerpt: as §1

[3] = test system: adenovirus type 19a binding to Chang C conjunctival cells; assay: Inhibition of adenovirus type 19a binding to Chang C conjunctival cells; type: cell-based
[4] = test system: adenovirus type 8 binding to Chang C conjunctival cells; assay: Inhibition of adenovirus type 8 binding to Chang C conjunctival cells; type: cell-based
[5] = test system: Ad37 binding to Chinese hamster ovary cells; assay: Ad37 binding to Chinese hamster ovary cells that do not express CAR; type: cell-based, adenovirus; details: Chinese hamster ovary cells not expressing CAR; see FIG. 2
Excerpt: as §1

[6] = test system: Ad37 binding to human epithelial A549 cells; assay: Ad37 binding to A549 cells; type: cell-based, adenovirus; details: pre-treatment / pre-incubation of the cells; FIG. 2
Excerpt: Binding to human epithelial A549 cells was investigated. […] This means that Ad8, Ad19a and Ad37, but not types 9 and 19p infect A549 cells by binding to cell surface sialic acid.

[7] = Chang cells, sialic acid carbohydrates, read-out: Concentration of carbohydrate causing 50% inhibition of Ad37 binding
[8] = read-out: Concentration of carbohydrate causing 50% inhibition of Ad37 binding
[9] = Chang cells, sialylated glycoproteins, read-out: Concentration of glycoprotein causing 50% inhibition of Ad37 binding

CC(=O)N[C@H]1[C@H]([C@H](O)[C@H](O)CO)O[C@@](O[C@H]2[C@@H](O)[C@@H](CO)O[C@@H](O[C@H]3[C@H](O[C@@H]4O[C@@H](C)[C@@H](O)[C@@H](O)[C@@H]4O)[C@@H](O)C(O)O[C@@H]3CO)[C@@H]2O)(C(=O)O)C[C@@H]1O (stereo partly drawn) [N-Acetyl Neuraminyl-3-Fucosyl Lactose, α-Neu-5-Ac-(2-3)-β-D-Gal(1-4)-(α-Fuc-(1-3))-Glc]
Inhibiting binding of Ad37 to sialic acid-expressing cells (in words) [1]: effective in inhibiting binding | IC50 [1, 7]: 5000 µM

CC(=O)N[C@H]1[C@H]([C@H](O)[C@H](O)CO)OC(O)(C(=O)O)C[C@@H]1O (stereo partly drawn) [N-acetyl-neuraminic acid]
Inhibiting binding of Ad37 to sialic acid-expressing cells (in words) [1]: effective in inhibiting binding | Maximal inhibition of Ad37 binding in % ([1]; 160 mM carbohydrate): 82% | IC50 [1, 8]: 18000 µM

O=C(CO)N[C@H]1[C@H]([C@H](O)[C@H](O)CO)OC(O)(C(=O)O)C[C@@H]1O (stereo partly drawn) [N-glycolyl-neuraminic acid]
Inhibiting binding of Ad37 to sialic acid-expressing cells (in words) [1]: effective in inhibiting binding | Maximal inhibition of Ad37 binding in % ([1]; 160 mM carbohydrate): 91% | IC50 [1, 8]: 40000 µM

CC(=O)N[C@@H]1[C@@H](O)[C@@H](O)[C@@H](CO)O[C@@H]1O [acetyl galactose amine, reference compound]
Interference with the binding of Ad37 to sialic acid expressing cells [1]: did not interfere with the binding

CC(=O)N[C@@H]1[C@@H](O)[C@H](O)[C@@H](CO)O[C@H]1O [acetyl glucose amine, reference compound]
Interference with the binding of Ad37 to sialic acid expressing cells [1]: did not interfere with the binding

CC(=O)N[C@H]1[C@@H](O)[C@H](O)[C@@H](CO)O[C@@H]1O [acetyl mannose amine, reference compound]
Interference with the binding of Ad37 to sialic acid expressing cells [1]: did not interfere with the binding

O=C[C@H](O)[C@@H](O)[C@@H](O)[C@H](O)CO [galactose, reference compound]
Interference with the binding of Ad37 to sialic acid expressing cells [1]: did not interfere with the binding

OC[C@H]1O[C@@H](O[C@H]2[C@H](O)[C@@H](O)C(O)O[C@@H]2CO)[C@H](O)[C@@H](O)[C@H]1O (stereo partly drawn) [lactose, reference compound]
Interference with the binding of Ad37 to sialic acid expressing cells [1]: did not interfere with the binding

CC(=O)N[C@H]1[C@H]([C@H](O)[C@H](O)CO)O[C@@](OC[C@H]2O[C@@H](O[C@H]3[C@H](O)[C@@H](NC(C)=O)C(O)O[C@@H]3CO)[C@H](O)[C@@H](O)[C@H]2O)(C(=O)O)C[C@@H]1O (stereo partly drawn) [α-Neu-5Ac-(2-6)-β-D-Gal-(1-4)-D-GlcNAc]
Inhibiting binding of Ad37 to sialic acid-expressing cells (in words) [1]: effective in inhibiting binding | IC50 [1, 7]: 7000 µM

CC(=O)NC1C(O)CC(OC2C(O)C(CO)OC(OC3C(O)C(CO)OC(O)C3NC(C)=O)C2O)(C(=O)O)OC1C(O)C(O)CO [α-NeuAc-(2-3)-β-D-Gal-(1-3)-β-GalNAc]
Ad37 virus binding to the structure (Ad37 virus): effective for Ad37 virus binding

CC(=O)N[C@H]1[C@H]([C@H](O)[C@H](O)CO)O[C@@](O[C@H]2[C@@H](O)[C@@H](CO)O[C@@H](O[C@H]3[C@H](O)[C@@H](NC(C)=O)C(O)O[C@@H]3CO)[C@@H]2O)(C(=O)O)C[C@@H]1O (stereo partly drawn) [α-NeuNAc-(2-3)-β-D-Gal-(1-4)-D-GlcNAc]
Inhibiting binding of Ad37 to sialic acid-expressing cells (in words) [1]: effective in inhibiting binding | IC50 [1, 7]: 5000 µM

Colominic acid
Inhibiting binding of Ad37 to sialic acid-expressing cells (in words) [1]: effective in inhibiting binding | Maximal inhibition of Ad37 binding in % ([1]; 160 mM carbohydrate): 79%

Fetuin: sialylated glycoprotein
Maximal inhibition of Ad37 binding in % ([1]; 500 μM glycoprotein): 62% | IC50 [1, 9]: 420 µM

GalNAcβ4(NeuAcα3)Galβ4Glcβ1 [NeuAcGM2]
Ad37 virus binding to the structure (Ad37 virus): effective for Ad37 virus binding

GalNAcβ4(NeuAcα8NeuAcα3)Galβ4Glcβ1 [NeuAc-GD2]
Ad37 virus binding to the structure (Ad37 virus): effective for Ad37 virus binding

Galβ3GalNAcβ4(NeuAcα8NeuAcα3)Galβ4Glcβ1 [NeuAc-GD1b]
Ad37 virus binding to the structure (Ad37 virus): effective for Ad37 virus binding

Mucin
Inhibiting adenoviral adhesion (adenoviral adhesion): very effective | Maximal inhibition of Ad37 binding in % ([1]; 500 μM glycoprotein): 89% | IC50 [1, 9]: 8 µM

N-acetyl-neuraminyllactose
Inhibiting binding of Ad37 to sialic acid-expressing cells (in words) [1]: effective in inhibiting binding | Maximal inhibition of Ad37 binding in % ([1]; 160 mM carbohydrate): 95% | Inhibition of Ad37 binding (in words) ([1]; 160 mM concentration): almost total inhibition | IC50 [1, 7]: 5000 µM

NeuAcα3Galβ3GalNAcβ4(NeuAcα3)Galβ4Glcβ1 [NeuAc-GD1a]
Ad37 virus binding to the structure (Ad37 virus): effective for Ad37 virus binding

Orosomucoid: sialylated, negatively charged glycoprotein
Maximal inhibition of Ad37 binding in % ([1]; 500 μM glycoprotein): 77% | IC50 [1, 9]: 75 µM

dextran sulphate
Impairment of Ad37 binding by negatively charged molecules [2]: could impair binding of the virus

heparan sulphates
Impairment of Ad37 binding by negatively charged molecules [2]: could impair binding of the virus

heparin
Maximal inhibition of binding in % ([3]; 670 μM heparin): 90% | IC50 ([3]; Chang C conjunctival cells, read-out: Concentration of heparin causing 50% inhibition of binding): 25 µM | Maximal inhibition of binding in % ([4]; adenovirus type 8, 670 μM heparin): 92% | IC50 ([4]; adenovirus type 8, Chang C conjunctival cells, read-out: Concentration of heparin causing 50% inhibition of binding): 30 µM | Maximal inhibition of binding in % ([1]; adenovirus type 37, 670 μM heparin): 87% | IC50 ([1]; adenovirus type 37, Chang C conjunctival cells, read-out: Concentration of heparin causing 50% inhibition of binding): 20 µM | Impairment of Ad37 binding by negatively charged molecules [2]: could impair binding of the virus

wheat germ agglutinin
Inhibition/blocking of Ad37 binding [5]: blocked the binding | Inhibition of Ad37 binding to A549 cells [6]: is inhibited

B1: Glycophorin A: sialylated glycoprotein (protein, UniProt P02724 20-150, looked up)
Glycophorin-A: LSTTEVAMHTSTSSSVTKSYISSQTNDTHKRDTYAATPRAHEVSEISVRTVYPPEEETGERVQLAHHFSEPEITLIIFGVMAGVIGTILLISYGIRRLIKKSPSDVKPLPSPDTDVPLSSVEIENPETSDQ
Maximal inhibition of Ad37 binding in % ([1]; 500 μM glycoprotein): 45% | IC50 [1, 9]: > 500 µM
